The record followed here is patent publication US20050234030A1, “Modulators of CRTH2, COX-2 and FAAH” (priority 2004, published 2005).

As usually defined, the melting point is the temperature, or range, at which the solid turns liquid. In the case of `COc1ccc2c(c1)c(CC(=O)O)c(C)n2C(=O)C1CCCCC1` [[1-(cyclohexylcarbonyl)-5-methoxy-2-methyl-1H-indol-3-yl]acetic acid], the melting point was 129 °C.

`COc1cc2c(CC(=O)O)c(C)n(C(=O)C3CCCCC3)c2cc1F` [[1-(cyclohexylcarbonyl)-6-fluoro-5-methoxy-2-methyl-1H-indol-3-yl]acetic acid] yielded a melting point of 104 °C.

Take `Cc1c(CC(=O)O)c2cc(O)ccc2n1C(=O)N1CCCCC1` [[5-hydroxy-2-methyl-1-(piperidin-1-ylcarbonyl)-1H-indol-3-yl]acetic acid]: the melting point turned out to be 235 °C.

With `Cc1c(CC(=O)O)c2cc(O)c(F)cc2n1C(=O)c1cccs1` [[6-fluoro-5-hydroxy-2-methyl-1-(thien-2-ylcarbonyl)-1H-indol-3-yl] acetic acid], the melting point was found to be 219 °C.

`COc1cc2c(CC(=O)O)c(C)n(C(=O)c3cccs3)c2cc1F` [[6-fluoro-5-methoxy-2-methyl-1-(thien-2-ylcarbonyl)-1H-indol-3-yl]acetic acid] returned a melting point of 137 °C.
